Data as given in patent publication US20110195845A1, “Constructs for Expressing Herbicide Tolerance Genes, Related Plants, and Related Trait Combinations” (Dow AgroSciences LLC, priority 2008, published 2011).

What was measured:
[1] = system: NT-1 tobacco suspension cells treated with DSM-2 (v2) (pDAB3778); assay: NT-1 tobacco cell transformation, selection on bialaphos or glufosinate ammonium; format: cell-based; settings: for Transformation Frequency on 10 mg/L Bialaphos following PCR Verification: % of selection plates with at least one PCR positive isolate
Experimental: (§1) Four days prior to transformation, a 1 week old NT-1 tobacco suspension, which was being subcultured every 7 days, was subcultured to fresh medium by adding 2 ml of the NT-1 culture or 1 ml of packed cells into 40 ml NT-1 B media. The subcultured suspension was maintained in the dark at 25±1° C. on a shaker at 125 rpm.
(§2) A 50% glycerol stock of Agrobacterium tumefaciens [strain LBA4404] harboring a binary vector of interest was used to initiate a liquid overnight culture by adding 20, 100, or 500 μl to 30 ml YEP liquid (10 g/L yeast extract, 10 g/L Peptone, 5 g/L NaCl, 0-10 g/L Sucrose) containing 50-100 mg/L spectinomycin. The bacterial culture was incubated in the dark at 28° C. in an incubator shaker at 150-250 rpm until the OD600 was 1.5+0.2. This took approximately 18-20 hrs.
(§3) For each vector tested, 20-70 mL of 4-day old suspension cells were transferred into a sterile vessel, to which 500-1750 μl of Agrobacterium suspension at the proper OD was added. To ensure a uniform mixture was achieved, the cells were pipetted up and down 5 times with a 10 ml wide-bore pipet. The uniform suspension was then drawn up into a 25 ml barrel of a repeat pipetter and 250 μl of the suspension was dispensed per well into 24-well plates, continuing until the suspension was exhausted. The well plates were wrapped in parafilm and cultured in the dark at 25±1° C. without shaking for a 3 day co-cultivation.
Following the co-cultivation, all excess liquid was removed from the individual wells with a 1 mL pipet tip, and remaining cells were resuspended in 1 ml NTC liquid (NT-1 B medium containing 500 mg/L carbenicillin, added after autoclaving). The contents of an individual well were dispersed across the entire surface of 100×25 mm selection plates using disposable transfer pipets. Selection media consisted of NTC media solidified with 8 g/l TC agar supplemented with 7.5 to 15 mg/L bialaphos or technical grade glufosinate ammonium, added after autoclaving. All selection plates, left unwrapped, were maintained in the dark at 28° C.
Putative transformants appeared as small clusters of callus on a background of dead, non-transformed cells. Calli were isolated approximately 2-6 weeks post-transformation. Each callus isolate was transferred to its own 60×20 mm plate containing the same selection medium and allowed to grow for approximately 2 weeks before being submitted for analysis.

[2] = system: NT-1 tobacco suspension cells treated with PAT (pDAB3779); assay: NT-1 tobacco cell transformation, selection on bialaphos; format: cell-based; settings: % of selection plates with at least one PCR positive isolate
Experimental: as §1, §2
as §3, with “The well plates were wrapped in parafilm and cultured in the dark at 25±1° C. without shaking for a 3 day co-cultivation.” left out

## C[C@H](NC(=O)[C@H](C)NC(=O)[C@@H](N)CCP(C)(=O)O)C(=O)O [Bialaphos]
[1]; 7.5 mg/L selection agent
  Transformation frequency (% of selection plates producing at least one callus) after coding region PCR: 38.9%
[1]
  Transformation Frequency on 10 mg/L Bialaphos following PCR Verification: 79%
[1]; listed as bialaphos
  Transformation Frequency on 10 mg/L Bialaphos following PCR Verification: 79%
[1]; 10 mg/L selection agent
  Transformation frequency (% of selection plates producing at least one callus) after coding region PCR: 44.4%
[1]; 12.5 mg/L selection agent
  Transformation frequency (% of selection plates producing at least one callus) after coding region PCR: 38.9%
[1]; 15 mg/L selection agent
  Transformation frequency (% of selection plates producing at least one callus) after coding region PCR: 22.2%
[2]
  Transformation Frequency on 10 mg/L Bialaphos following PCR Verification: 100%
[2]; listed as bialaphos
  Transformation Frequency on 10 mg/L Bialaphos following PCR Verification: 100%
